Measurements: PMC8261488, “Contraceptive progestins with androgenic properties stimulate breast epithelial cell proliferation” (EMBO Molecular Medicine, 2021)

Key:
HBECs [1] = assay: In vivo growth of intraductal HBEC xenografts measured by radiance
Source text: To compare the effects of progesterone and different progestins on HBECs in vivo, we infected single cell suspensions obtained from fresh reduction mammoplasty specimens with GFP‐luciferase2‐expressing lentiviruses. The infected cell mixture was grafted intraductally to up to 5 glands of as many recipients as possible. The engraftment and growth of the xenografted cells were monitored weekly by in vivo imaging. When radiance reached > 10E07 on average per mammary gland, 60‐day‐release pellets were implanted subcutaneously, usually within 3–10 weeks after cell injection. At sacrifice, blood was collected and plasma levels of the administered compounds as well as endogenous steroid hormones were determined by liquid chromatography‐mass spectrometry (LC‐MS) (Laszlo et al, 2019).
Next, the in vivo growth of HBEC xenografts stimulated with progesterone or different progestins was analyzed. […] In addition, the fold change radiance of treated versus untreated samples at endpoint was calculated (Fig 5A–C).
(§3) Mice were anesthetized by intraperitoneal injection with 10 mg/kg xylazine and 90 mg/kg ketamine (Graeub) and injected intraductally with 10 μl cell suspension per gland. Bioluminescence imaging was performed as described (Sflomos et al, 2016). After 3–10 weeks, when bioluminescence from individual glands reached 10^7 total flux (p/s/cm2/sr), animals were assigned to different treatment groups and hormone pellets implanted subcutaneously. Enzalutamide (Selleckchem, Catalog No. S1250) dissolved in 15% DMSO in PEG300 was injected intraperitoneally 3 times/week at 30 mg/kg.
Pellets were prepared by mixing the required amount of part A, MP3745/E81949 and part B, MP3744/E81950 of low consistency silicon elastomer (MED‐4011) and hormone powder to homogeneity. Mix was transferred to a syringe and incubated at 37°C overnight. The silicon‐hormone mass was removed from the syringe and cut to pieces, as described (Duss et al, 2007). The original protocol was adapted for different doses as described below.

Wnt4 = Wnt4 transcript levels by RT-PCR in mouse mammary organoids stimulated ex vivo; type: cell-based
HBECs [2] = assay: MKI67/Ki67 expression in xenografted HBECs; type: in vivo, human; conditions: 21 days pellets; for cell proliferation (KI67 and hECAD double+ cells), overall analysis: HBECs from 11 different patients; for cell proliferation (KI67 and hECAD double+ cells): one mammoplasty (M310)
Source text: (§1) Next, we sought for a readout of in vivo cell proliferation different from radiance. […] Given that MKI67 expression could replace the luciferase measurements as a readout, we used a modified experimental setup for a second round of experiments. We derived HBECs from viably frozen mammoplasty samples (Appendix Table S3) and engrafted them to different mammary glands of NSG females without viral infection. Four months later, the 24 recipient females, each engrafted with 5 different mammoplasties received pellets containing either vehicle, progesterone, or 1 of 6 progestins for 21 days. At sacrifice, xenografted glands were histologically sectioned and cell proliferation was quantified using co‐IF with anti‐MKI67 and anti‐hECAD antibodies. For one of the mammoplasties, we were able to obtain measurements for all experimental conditions (Fig 5I). […] For the remaining mammoplasties, between 3 and 8 different experimental conditions were successfully quantified (Appendix Table S4). […] CPA (P < 0.0001) decreased proliferation, whereas CMA and DSP had no effect (Fig 5K). As AR signaling increases AR protein levels, we performed co‐IF for AR and hECAD as another means to assess AR signaling activity.
(§2) Tissues were fixed for 2 h at room temperature in 4% paraformaldehyde and paraffin‐embedded. Dewaxed and rehydrated paraffin sections were pretreated in 10 mM Na citrate (pH 6.0) at 95° for 20 min. Blocking was performed with 1% BSA for 60 min. Primary antibodies used were as follows: Ki67 (rabbit α‐Ki67, clone Sp6, Spring Amsbio, dilution 1:200), ER (rabbit α‐ER, clone Sp1, Zytomed RTU), PR (rabbit α‐PR, clone 1E2, Ventana RTU), AR (rabbit α‐AR, clone SP107, Thermo Fisher, diluted 1:200), CK7 (rabbit α‐CK7, clone Sp52, Abcam, diluted 1:500), CK19 (mouse KS19.2 (Z105.6), American Research Products Inc. (diluted 1:50), and mouse α‐ECAD (clone G‐10, sc‐8426, diluted 1:100). For IHC, chromogenic revelation was performed with ChromoMap DAB kit (Roche Diagnostics, Switzerland) and sections were counterstained with Mayer’s hematoxylin. For fluorescence microscopy, nuclei were counterstained with DAPI (Sigma). IHC for ER, PR, and AR was performed on Discovery Ventana ULTRA (44). IHC images were acquired on Leica DM 2000 with Leica DFC450 C camera. IF images were acquired on Zeiss LSM700 confocal microscope. Slides were scanned with Olympus VS120‐L100 slide scanner with 20×/0.75 objective and Pike F505 C Color camera. Images were loaded into QuPath using the BioFormats extension (Bankhead et al, 2017).

Rankl = Rankl transcript levels by RT-PCR in mouse mammary organoids stimulated ex vivo; type: cell-based
HBECs [3] = assay: MKI67/Ki67 expression in xenografted HBECs; type: in vivo, human; conditions: 3 weeks of treatment, at endpoint
AR [4] = assay: In vivo growth of LNG-treated HBEC xenografts transduced with shAR or sh scramble; parameters: species or system human; conditions: within 60 days
Source text: To further test the requirement for AR in the context of progestin‐driven proliferation, we took a genetic approach and down modulated AR expression in freshly isolated HBECs using a GFP‐luciferase2‐shAR or GFP‐luciferase2‐sh scramble expressing lentivirus. […] Double IF with anti‐GFP and anti‐AR antibodies and analysis by image quantification confirmed the down regulation of AR protein levels in the shAR infected cells identified based on GFP co‐expression (Fig 7E and F).

human breast epithelium = conditions: female, mouse, in vivo, 8 months
Procedure: All the engrafted glands were processed for histological analysis and H&E stained.
as §3

KLK3 = KLK3 mRNA in xenografted HBECs by RT-PCR with human-specific primers; type: in vivo; conditions: 3 weeks of treatment (Fig 5H)
Source text: Consistent with AR and PR sharing a common hormone response element (Claessens et al, 1996), KLK3 was induced upon progestin stimulation. […] This is in agreement with previous findings that KLK3 expression is under the control of both androgens and progestins in T47D cells (Zarghami et al, 1997).
as §1
Human breast microstructures and mouse organoids were homogenized in Trizol (Invitrogen). Aqueous phase containing RNA was chloroform extracted and processed with miRNeasy extraction kit (Qiagen). cDNA was synthesized using random p(dN)6 primers (Roche) and MMLV reverse transcriptase (Invitrogen). SYBR Green PCR Core Reagent System (Qiagen) was used for semi‐quantitative real time (RT‐PCR) using the following primers.

women = conditions: cited from earlier work
HBECs [5] = assay: In vivo growth of HBEC xenografts treated with LNG with or without enzalutamide; parameters: species or system human; conditions: 3 PDXs, radiance
Procedure: Mice were anesthetized by intraperitoneal injection with 10 mg/kg xylazine and 90 mg/kg ketamine (Graeub) and injected intraductally with 10 μl cell suspension per gland. […] After 3–10 weeks, when bioluminescence from individual glands reached 10^7 total flux (p/s/cm2/sr), animals were assigned to different treatment groups and hormone pellets implanted subcutaneously. Enzalutamide (Selleckchem, Catalog No. S1250) dissolved in 15% DMSO in PEG300 was injected intraperitoneally 3 times/week at 30 mg/kg.

[6] = test system: endogenous hormone levels in mice; assay: Endogenous steroid hormone plasma levels in treated host mice by LC-MS; type: in vivo, mouse; conditions: xenografted NSG females with pellets
Source text: Next, we assessed whether progesterone and progestins differentially affected endogenous hormone levels in mice. Plasma 17‐β‐estradiol levels were not affected by any of the treatments (Fig 4H). […] Plasma testosterone levels were not altered by any treatment with the exception of DSP, which decreased them (Fig 4H). Thus, prolonged exposures to progestins differentially affect endogenous progesterone plasma levels and DSP decreases testosterone plasma levels in host mice.

AR [7] = test system: AR; parameters: method as in earlier work; conditions: various assays, ref Fuhrmann et al, 1995, Muhn et al, Bouchard, 2005, Mishell, 2008, Schneider et al, 2009, Africander et al, 2011, Louw‐du Toit et al, 2017; cited from earlier work
AR [8] = assay: Percentage of AR+ cells in xenografted HBECs by co-IF for AR and hECAD; type: in vivo, human; conditions: 21 days pellets, HBECs from 11 different patients
Source text: as §1, §2

[9] = test system: human breast tissue microstructures (EpCAM+ cells); assay: RNA sequencing of EpCAM+ cells from human breast tissue microstructures stimulated ex vivo; type: cell-based; conditions: 14–18 h exposure, n = 3
Source text: Having ascertained with mammary tissue from inbred mice that androgenic and anti‐androgenic progestins have different effects on the expression of important PR target genes, we set out to assess the transcriptional response to PR signaling in the human breast epithelium. In view of our goal to perform in vivo experiments with the natural ligand progesterone, we compared the effects of progesterone to those of its stable analog R5020 which is commonly used for in vitro experiments on breast epithelial cells. For this, we used an ex vivo approach with human breast tissue similar to the mouse organoid technique used above that maintains hormone responsiveness (Tanos et al, 2013; Sflomos et al, 2015). In brief, 3 fresh mammoplasty tissue from women with follicular phase progesterone levels were cut into 1 mm^3 pieces and aliquoted for digestion with collagenase and concomitant exposure to either vehicle, R5020, or progesterone for 14–18 h. Tissue microstructures that contain epithelial cells, immune cells, and fibroblasts in varying proportions were recovered. To reduce interpatient variation as far as it relates to different ratios of various cell types, at the end of the treatment, the tissue microstructures were dissociated to single cells and enriched for epithelial cells by FACS sorting with antibodies against the epithelial cell surface marker EpCAM (Fig 2A). The EpCAM^+ cells were processed for RNA sequencing. […] Progesterone affected expression levels of 65 genes, whereas R5020 affected 112 genes, including RANKL (adj.P < 0.05) (Appendix Fig S2A). More than 90% of the progesterone‐induced gene expression changes were induced by R5020 (Fig 2C). […] R5020 induced higher‐fold changes as indicated by the estimated slope of the curve being > 1 (P < 0.0001). […]
All experiments conformed to the principles set out in the WMA Declaration of Helsinki and the Department of Health and Human Services Belmont Report. […] Human tissue samples were mechanically and enzymatically dissociated, single cells were prepared, counted, and spin infected using Lenti‐ONE CMV‐GFP(2A)Luc2 WPRE VSV, V621004001, or pR980 Luc2GFP (GEGTECH) at a multiplicity of infection of 1 at 2.500 rpm for 3 h at room temperature in 500 μl of serum‐free medium. […]
RNAseq libraries were prepared using Truseq Stranded RNA producing single‐end reads of 100 bp and sequenced on Illumina Hiseq 2500 instrument. […]
Sequencing reads were quality controlled using FastQC (v0.11.8) (Wingett & Andrews, 2018). Mouse raw reads were aligned to the mouse genome (mm9) and human raw reads to the human genome (hg19) using TopHat (v2.0.11) (Kim et al, 2013). […]

[10] = NSG, mouse, in vivo
Procedure: At sacrifice, blood was collected and plasma levels of the administered compounds as well as endogenous steroid hormones were determined by liquid chromatography‐mass spectrometry (LC‐MS) (Laszlo et al, 2019).
Plasma steroid concentrations were measured by LC–MS High Resolution (Q‐Executive, Thermo Fisher Scientific) for testosterone, progesterone, and 17β‐estradiol as described in (Cagnet et al, 2018) and for progestins as described in (Laszlo et al, 2019).

[11] = 60 days of treatment, subcutaneous pellets
[12] = BalbC females, 6 h of stimulation
[13] = BalbC-derived organoids, 24 h of stimulation

C#C[C@]1(O)CC[C@H]2[C@@H]3CCC4=CC(=O)CC[C@@H]4[C@H]3CC[C@@]21CC [LNG, levonorgestrel]
cell proliferation by radiance measurements (HBECs [1]; 3 weeks of treatment, mammoplasty M354): stimulated cell proliferation
growth (course of radiance) of engrafted HBECs versus control (HBECs [1]; [11]): increased growth
Wnt4 transcript levels over vehicle-treated control (Wnt4; [12]): 4.8 fold
Wnt4 transcript induction (Wnt4; [13]): 36.3 fold
Wnt4 transcript induction (Wnt4; C57Bl/6 mice, 6 h, 20 nM): 4.3 fold
cell proliferation (KI67 and hECAD double+ cells), overall analysis (HBECs [2]): increased
cell proliferation (KI67 and hECAD double+ cells) (HBECs [2]): significantly increased
Rankl transcript levels over vehicle-treated control (Rankl; [12]): 27.7 fold
Rankl transcript induction (Rankl; [13]): 253.9 fold
Rankl transcript induction (Rankl; C57Bl/6 mice, 6 h, 20 nM): 21.6 fold
MKI67 expression at mRNA level (HBECs [3]): increased
MKI67 expression at protein level (HBECs [3]): increased
reduction of LNG-induced radiance by down regulation of AR expression (shAR) (AR [4]): 22%
morphologic changes in xenografts (H&E) (human breast epithelium): 3 or 4 grafts showed diffuse and in some cases marked acinar proliferation
KLK3 transcript expression (KLK3): increased
breast cancer risk (women; women taking androgenic progestins, ref Rossouw et al, 2002): elevated breast cancer risk
RR of breast cancer (women; women, ref Hunter et al, 2010): 3.05
lobular breast cancer risk compared to the general population (women; women, ref Hunter et al, 2010): 1.45
RR for ductal breast cancer (women; women, ref Soini et al, 2016): 1.20
proliferation rates of PDXs upon LNG exposure (HBECs [5]): increased the proliferation rates in 2 of 3 PDXs
endogenous progesterone plasma levels (estrous cycle-related variation) [6]: did not affect
androgenic / anti-androgenic activity (AR [7]): androgenic activity

CC(=O)[C@H]1CC[C@H]2[C@@H]3CCC4=CC(=O)CC[C@]4(C)[C@H]3CC[C@]12C [progesterone]
growth (course of radiance) of engrafted HBECs versus control (HBECs [1]; [11]): increased
relative radiance at endpoint over control (FC) (HBECs [1]; [11]): 1.3 fold
cell proliferation (KI67 and hECAD double+ cells), overall analysis (HBECs [2]): increased
cell proliferation (KI67 and hECAD double+ cells) (HBECs [2]): significantly increased
percentage of AR+ cells (AR index) (AR [8]): decreased
RANKL expression (variant stabilized gene expression values) [9]: increased expression
WNT4 expression (variant stabilized gene expression values) [9]: increased expression
plasma progesterone relative to average levels in control mice [10]: 4.9 times
association with breast cancer risk (women): not associated with breast cancer risk
